# Where a name gives a salt, the structure may show the parent alone.
# Columns and labels:
# [1] = test system: Brain-Specific Receptors of Rats (3H-benzodiazepine binding); assay: Inhibition of the binding of 3H-benzodiazepine to brain-specific receptors of rats; design: species or system rat (Wistar strain, whole cortex); conditions: rat cortex P2 fraction, 3H-diazepam 1.5 nM or 3H-flunitrazepam 1.0 nM
# Source text: Another test utilized for the determination of anxiolytic activity is the measurement of the ability of a test compound to inhibit the binding of tritiated benzodiazepines to brain-specific receptors of mammals. A modification of the method described by R. F. Squires, et al., Nature, 266 (21), 732 (Apr., 1977) and H. Mohler, et al., Science, 198, 849 (1977) was employed. […] The test compounds were solubilized in dimethylformamide, acetic acid, ethanol or hydrochloric acid. […] (1) resuspended in twice the original volume in hypotonic 50 mM Tris.HCl (pH 7.4), or (2) resuspended in one-half the original volume in hypotonic 10 mM Tris.HCl (pH 7.4) and frozen (-20° C.) until time. of use. Frozen P2 preparations were thawed and resuspended in four times the original homogenizing volume at time of assay. […] Incubation for 30 minutes proceeded in ice and was terminated by filtration, under vacuum, through glass fiber filters. The filters were washed twice with 5 ml of ice-cold 50 mM Tris.HCl (pH 7.4) and placed in scintillation vials. After drying at 50°-60° C. for 30 minutes, 10 ml of diluent was added and the radioactivity determined in a scintillation counter. Inhibition of binding was calculated by the difference between total binding and binding in the presence of test compound, divided by the total binding, X 100.
# [2] = test system: Spontaneously Hypertensive Rats; assay: Hypotensive activity: mean arterial blood pressure in spontaneously hypertensive rats; format: in vivo, rat (Okamoto strain, male); conditions: SHR, gavage, 100 mg/kg or less, two doses 24 h apart, measured at 28 hours, average MABP of rats used 160±1.5 mm
# Description: The novel compounds of the invention are active hypotensive agents at nontoxic doses when administered to mammals. These compounds were tested for hypotensive activity by the method of P. S. Chan and D. W. Poorvin, Clinical and Experimental Hypertension, (6), 817-830 (1979). Male, 16 week old, spontaneously hypertensive rats of the Okamoto strain (Taconic Farms, Germantown, N.Y.) having an average means arterial blood pressure of 160±1.5 mm of mercury are used in the test. A rat is dosed by gavage with a test compound, suspended in 2% pre-boiled starch at a concentration of 50 mg/ml, at a dose of 100 mg/kg of body weight or less, with 0.9% sodium chloride loading at a dose of 25 ml/kg of body weight. A second identical dose of the test compound, without sodium chloride loading is given 24 hours later. At 28 hours after the initial dose the mean arterial blood pressure is measured by the method of Chan and Poorvin vide supra.
# [3] = test system: mice (hypoxic environment); assay: Hypoxic survival test; format: in vivo, mouse (Royal Hart); conditions: Mus musculus, ip, 5 min, 100 mg/kg, intraperitoneal, 10% oxygen, 5 minutes; read-out: % Survivors
# Method in brief: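 Groups of 20 Royal Hart mice (6 weeks old) dosed i.p. with compound in saline at 1–200 mg/kg, 30 minutes before exposure to 10% oxygen/90% carbon dioxide; survival scored after 5 minutes. Saline and physostigmine (0.125 mg/kg i.p.) groups run in parallel.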
% Inhibition (3H-benzodiazepine binding) [1] [%],SMILES,MABP/mmHg (mean arterial blood pressure) [2] [mmHg],further results
24,"CCCCCCN(CCCCCC)CC(=O)N1CC=C(c2cccc(C(F)(F)F)c2)n2ncc(C#N)c21 [4-[(Dihexylamino)acetyl]-4,5-dihydro-7-[3-(trifluoromethyl)phenyl]pyrazolo[1,5-a]pyrimidine-3-carbonitrile]",–,–
41,"CN1CCN(CC(=O)N2CC=C(c3cccc(C(F)(F)F)c3)n3ncc(C#N)c32)CC1 [Example 16, 4,5-Dihydro-4-[(4-methyl-1-piperazinyl)acetyl]-7-[3-(trifluoromethyl)phenyl]pyrazolo[1,5-a]pyrimidine-3-carbonitrile]",–,–
41,"N#Cc1cnn2c1N(C(=O)CN1CCN(CC(=O)N3CCOCC3)CC1)CC=C2c1cccc(C(F)(F)F)c1 [Example 36, 4,5-Dihydro-4-[[4-[2-(4-morpholinyl)-2-oxoethyl]-1-piperazinyl]acetyl]-7-[3-(trifluoromethyl)phenyl]pyrazolo[1,5-a]pyrimidine-3-carbonitrile]",129,–
41,CC(C)NC(=O)CN1CCN(CC(=O)N2CC=C(c3cccc(C(F)(F)F)c3)n3ncc(C#N)c32)CC1 [Example 37],129,–
33,"N#Cc1cnn2c1N(C(=O)CN1CCN(CC(=O)N3CCCC3)CC1)CC=C2c1cccc(C(F)(F)F)c1 [Example 38, 4,5-Dihydro-4-[[4-[2-oxo-2-(1-pyrrolidinyl)ethyl]-1-piperazinyl]acetyl]-7-[3-(trifluoromethyl)phenyl]pyrazolo[1,5-a]pyrimidine-3-carbonitrile]",–,–
45,CCOC(=O)N1CCN(CC(=O)N2CC=C(c3cccc(C(F)(F)F)c3)n3ncc(C#N)c32)CC1 [Example 42],–,–
–,"C=CCN1CCN(CC(=O)N2CC=C(c3cccc(C(F)(F)F)c3)n3ncc(C#N)c32)CC1 [Example 47, 4,5-Dihydro-4-[[4-(2-propenyl)-1-piperazinyl]acetyl]-7-[3-(trifluoromethyl)phenyl]pyrazolo[1,5-a]pyrimidine-3-carbonitrile]",139,–
–,"CC(C)N1CCN(CC(=O)N2CC=C(c3cccc(C(F)(F)F)c3)n3ncc(C#N)c32)CC1 [Example 51, 4,5-Dihydro-4-[[4-(1-methylethyl)-1-piperazinyl]acetyl]-7-[3-(trifluoromethyl)phenyl]pyrazolo[1,5-a]pyrimidine-3-carbonitrile]",139,–
–,"N#Cc1cnn2c1N(C(=O)CN1CCN(C3CCC3)CC1)CC=C2c1cccc(C(F)(F)F)c1 [Example 52, 4-[(4-Cyclobutyl-1-piperazinyl)acetyl]-4,5-dihydro-7-[3-(trifluoromethyl)phenyl)pyrazolo[1,5-a]pyrimidine-3-carbonitrile]",124,–
–,"N#Cc1cnn2c1N(C(=O)CN1CCN(Cc3ccccc3)CC1)CC=C2c1cccc(C(F)(F)F)c1 [Example 78, 4,5-Dihydro-4-[[4-(phenylmethyl)-1-piperazinyl]acetyl]-7-[3-(trifluoromethyl)phenyl]pyroazolo[1,5-a]pyrimidine-3-carbonitrile, dihydrochloride]",–,"MABP/mmHg (mean arterial blood pressure) ([2]; dihydrochloride, 100 mg/kg): 137 mmHg"
12,"Cl.N#Cc1cnn2c1N(C(=O)CN1CCN(c3ccc(Cl)c(Cl)c3)CC1)CC=C2c1cccc(C(F)(F)F)c1 [Example 82, 4-[[4-(3,4-Dichlorophenyl)-1-piperazinyl]acetyl]-4,5-dihydro-7-[3-(trifluoromethyl)phenyl]pyrazolo[1,5-a]pyrimidine-3-carbonitrile, hydrochloride]",–,–
14,"N#Cc1cnn2c1N(C(=O)CN1CCN(CCC3CCCCC3)CC1)CC=C2c1cccc(C(F)(F)F)c1 [Example 86, 4-[[4-(2-(Cyclohexylethyl)-1-piperazinyl]acetyl]-4,5-dihydro-7-[3-(trifluoromethyl)phenyl]pyrazolo[1,5-a]pyrimidine-3-carbonitrile, dihydrochloride]",–,–
12,"N#Cc1cnn2c1N(C(=O)CN1CCN(C(=O)c3ccco3)CC1)CC=C2c1cccc(C(F)(F)F)c1 [Example 96, 4-[[4-(2-Furanylcarbonyl)-1-piperazinyl]acetyl]-4.5-dihydro-7-[(3-trifluoromethyl)phenyl]pyrazolo[1,5-a]pyrimidine-3-carbonitrile, hydrochloride]",–,–
25,"N#Cc1cnn2c1N(C(=O)CN1CCNCC1)CC=C2c1cccc(C(F)(F)F)c1 [Example 98, 4.5-Dihydro-4-(1-piperazinylacetyl)-7-[3-(trifluoromethyl)phenyl]pyrazolo[1,5-a]pyrimidine-3-carbonitrile]",–,–
24,"N#Cc1cnn2c1N(C(=O)CN1CCN(C(=O)Nc3ccccc3)CC1)CC=C2c1cccc(C(F)(F)F)c1 [Example 99, 4-[2-[3-Cyano-7-[3-(trifluoromethyl)phenyl]pyrazolo-[1,5-a]pyrimidin-4(5H)-yl]-2-oxoethyl]-N-phenyl-1-piperazinecarboxamide]",125,–
15,"COc1ccc(Cl)cc1NC(=O)CN1CCN(CC(=O)N2CC=C(c3cccc(C(F)(F)F)c3)n3ncc(C#N)c32)CC1 [Example 100, N-(5-Chloro-2-methoxyphenyl)-4-[2-[3-cyano-7-[3-(trifluoromethyl)phenyl]pyrazolo[1.5-a]pyrimidin-4(5H)-yl]-2-oxoethyl]-1-piperazineacetamide]",139,–

SMILES,% Inhibition (3H-benzodiazepine binding) [1] [%],MABP/mmHg (mean arterial blood pressure) [2] [mmHg],further results
"N#Cc1cnn2c1N(C(=O)CN1CCN(Cc3ccccc3)CC1)CCC2c1cccc(C(F)(F)F)c1 (centres unmarked) [Example 46, 4,5,6,7-Tetrahydro-4-[[4-(phenylmethyl)-1-piperazinyl]acetyl]-7-[3-(trifluoromethyl)phenyl]pyrazolo[1,5-a]pyrimidine-3-carbonitrile]",14,–,responders at 100 mg/kg [3]: 80%
"Cl.Cl.N#Cc1cnn2c1N(C(=O)CN1CCN(Cc3ccccc3)CC1)CCC2c1cccc(C(F)(F)F)c1 (centres unmarked) [Example 89, 4,5,6,7-Tetrahydro-4-[[4-(phenylmethyl)-1-piperazinyl]acetyl]-7-[3-(trifluoromethyl)phenyl]pyrazolo[1,5-a]pyrimidine-3-carbonitrile, dihydrochloride]",12,–,–
